In patent US20170343549A9, “METHODS FOR DETECTING AND MONITORING COLORECTAL CANCER” (REGENTS OF THE UNIVERSITY OF MINNESOTA, priority 2015, published 2017):
Entries after “also recorded” stand apart in the source; their conditions may differ.

Key:
Format in all cases: in vivo, human
circulating TXA2 = assay: Circulating TXA2 level in FAP patients, regular aspirin users vs nonusers (plasma enzyme immunoassay); details: regular aspirin use (two or more 325 mg tablets per week, n=14) vs nonusers (n=24), FIG. 4A
Procedure: (§1) All clinical studies using human subjects or human materials were approved by the Mayo Clinic review board. Volunteers were recruited by the Gastroenterology and Hepatology group at Mayo Clinic, Rochester, Minn. Individuals in the healthy control group (n=16) were normal patients who underwent colonoscopy screening. Familial adenomatous polyposis (FAP) patients who reported taking two or more standard (325 mg) aspirin tablets per week were classified as regular aspirin users (n=14) and those reporting consumption of less aspirin were classified as aspirin nonusers (n=24) (Chan et al., 2007. N Engl J Med 356 (21):2131-2142). Individuals in the sporadic colorectal cancer group (n=20) were patients who were diagnosed with colorectal cancer, but without a family history of colorectal cancer. Other inclusion criteria were as follows: age at 18-75 years old; gender ratio approximately 1:1; and a non-smoking history. The measurement of PGs in plasma from patients was performed using enzyme immunoassay kits from Cayman Chemical Co. (Ann Arbor, Mich.) following the manufacturer's instructions. Briefly, blood was collected from a vein in the arm just inside the elbow using a 22 gauge needle. Before blood collection, the tourniquet was applied about three inches above the selected puncture site. […]

the other four PGs = assay: Circulating levels of the other four PGs in FAP patients, regular aspirin users vs nonusers (plasma enzyme immunoassay); details: regular aspirin use vs nonusers, FIG. 4A
Procedure: as §1

TBXA2R = assay: Immunohistochemistry staining of TBXA2R in polyps of FAP patients, aspirin users vs nonusers; details: epithelial cells from polyps, aspirin intake, FIG. 4B
Procedure: (§2) All clinical studies using human subjects or human materials were approved by the Mayo Clinic review board. Volunteers were recruited by the Gastroenterology and Hepatology group at Mayo Clinic, Rochester, Minn. Individuals in the healthy control group (n=16) were normal patients who underwent colonoscopy screening. Familial adenomatous polyposis (FAP) patients who reported taking two or more standard (325 mg) aspirin tablets per week were classified as regular aspirin users (n=14) and those reporting consumption of less aspirin were classified as aspirin nonusers (n=24) (Chan et al., 2007. N Engl J Med 356 (21):2131-2142). Individuals in the sporadic colorectal cancer group (n=20) were patients who were diagnosed with colorectal cancer, but without a family history of colorectal cancer. Other inclusion criteria were as follows: age at 18-75 years old; gender ratio approximately 1:1; and a non-smoking history.
(§3) Surgically resected human colon tissues at all clinical stages were fixed in 10% formalin overnight at room temperature. […] Immunohistochemistry staining intensity was quantified by calculating the integrated optical density (IOD, sum) of area of interest using the Image Pro-Plus 7.0 software program (Media Cybernetics, Inc., Rockville, Md.).

TBXAS1 = assay: Immunohistochemistry staining of TBXAS1 in polyps of FAP patients, aspirin users vs nonusers; details: epithelial cells from polyps, aspirin intake, FIG. 4B
Procedure: as §2, §3

Ki-67 = assay: Immunohistochemistry staining of Ki-67 in polyps of FAP patients, aspirin users vs nonusers; details: epithelial cells from polyps, aspirin intake, FIG. 4B
Procedure: as §2, §3

Structure (SMILES): CC(=O)Oc1ccccc1C(=O)O [aspirin]
- circulating TXA2 level (circulating TXA2): significant (p<0.001) decrease; also recorded: significantly decreased
- levels of the other four PGs (the other four PGs): little effect
- expression of TBXA2R (TBXA2R): lower expression
- expression of TBXAS1 (TBXAS1): lower expression
- expression of Ki-67 (Ki-67): lower expression
